One test addresses CK1 (Homo sapiens, UniProt P48730). Briefly: Kinase panel: CK1. The format is biochemical, human/mammalian. The settings on record: compound at 10 μM, read-out: % of activity respect of the control. Here is the method:
(§1) The DDU kinase-focused compound set contains lead-like scaffolds that are designed to target protein kinases; they have kinase hinge binding motifs. Four of the 1H-imidazopyrazinones were screened against a human/mammalian kinase panel at the University of Dundee (http://www.kinase-screen.mrc.ac.uk) at a concentration of 10 μM. At the time of testing the panel contained 79 mammalian kinases selected to provide a broad coverage of the mammalian kinome (∼500 kinases in the human genome).[3] None of the compounds were active against any of the kinases at 10 μM.

Another test has as its target PKBa (Homo sapiens, UniProt P31749). In words: Kinase panel: PKBa. Type of test: biochemical, human/mammalian. Conditions: compound at 10 μM, read-out: % of activity respect of the control. Here is the method:
as §1

The next test has as its target EF2K (Homo sapiens, UniProt O00418). Briefly: Kinase panel: EF2K. Type of test: biochemical, human/mammalian. The settings on record: compound at 10 μM, read-out: % of activity respect of the control. Here is the method:
as §1

In test [1] the test system is MRC5 cells (human lung fibroblasts). In words: MRC5 proliferation assay. The format is cell-based. Conditions: geometric mean of two or more determinations. The method, boiled down: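 Bloodstream-stage T. brucei or MRC5 cells (MRC5 in MEM + 10% FBS), 2×10^3 per well, exposed to compounds ([…] to 0.5 nM) for 69 h at 37 °C, 5% CO2. Viability read by fluorescence after a further 4 h with 50 μM resazurin.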

For a further test, the target named is PKBb (Homo sapiens, UniProt P31751). In words: Kinase panel: PKBb. Type of test: biochemical, human/mammalian. Conditions: compound at 10 μM, read-out: % of activity respect of the control. Here is the method: as §1
The target of another test is Aurora B (Homo sapiens, UniProt Q96GD4). In words: Kinase panel: Aurora B. The settings on record: compound at 10 μM, read-out: % of activity respect of the control. Type of test: biochemical, human/mammalian. Here is the method: as §1
In a further test the target is CDK2-Cyclin A (Homo sapiens, UniProt P24941). In words: Kinase panel: CDK2-Cyclin A. Type of test: biochemical, human/mammalian. Conditions: compound at 10 μM, read-out: % of activity respect of the control. Here is the method:
as §1

A further test concerns the target DYRK1A (Homo sapiens, UniProt Q13627). In words: Kinase panel: DYRK1A. Type of test: biochemical, human/mammalian. Conditions: compound at 10 μM, read-out: % of activity respect of the control. Here is the method: as §1
For a further test, the system named is AMPK. Briefly: Kinase panel: AMPK. The format is biochemical, human/mammalian. The settings on record: compound at 10 μM. Here is the method: as §1
The next test concerns the target T1, NEK2a (Homo sapiens, UniProt P51955).
T1 sequence (P51955 1-445): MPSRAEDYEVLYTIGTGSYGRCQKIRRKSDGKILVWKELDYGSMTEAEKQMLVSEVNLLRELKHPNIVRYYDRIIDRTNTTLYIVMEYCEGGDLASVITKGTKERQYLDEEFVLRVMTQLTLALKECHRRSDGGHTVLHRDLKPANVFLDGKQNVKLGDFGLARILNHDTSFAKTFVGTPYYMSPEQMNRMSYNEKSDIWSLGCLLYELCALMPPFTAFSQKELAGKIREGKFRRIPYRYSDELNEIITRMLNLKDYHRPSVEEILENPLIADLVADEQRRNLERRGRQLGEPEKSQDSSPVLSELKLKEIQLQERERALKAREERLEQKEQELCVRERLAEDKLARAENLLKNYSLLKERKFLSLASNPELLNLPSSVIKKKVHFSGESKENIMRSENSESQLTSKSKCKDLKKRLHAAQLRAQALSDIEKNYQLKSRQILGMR
Briefly: Kinase panel: NEK2a. Conditions: compound at 10 μM, read-out: % of activity respect of the control. Type of test: biochemical, human/mammalian. Here is the method: as §1

In another test the target is T2, DYRK2 (Homo sapiens, UniProt Q92630).
T2 sequence (Q92630 1-601): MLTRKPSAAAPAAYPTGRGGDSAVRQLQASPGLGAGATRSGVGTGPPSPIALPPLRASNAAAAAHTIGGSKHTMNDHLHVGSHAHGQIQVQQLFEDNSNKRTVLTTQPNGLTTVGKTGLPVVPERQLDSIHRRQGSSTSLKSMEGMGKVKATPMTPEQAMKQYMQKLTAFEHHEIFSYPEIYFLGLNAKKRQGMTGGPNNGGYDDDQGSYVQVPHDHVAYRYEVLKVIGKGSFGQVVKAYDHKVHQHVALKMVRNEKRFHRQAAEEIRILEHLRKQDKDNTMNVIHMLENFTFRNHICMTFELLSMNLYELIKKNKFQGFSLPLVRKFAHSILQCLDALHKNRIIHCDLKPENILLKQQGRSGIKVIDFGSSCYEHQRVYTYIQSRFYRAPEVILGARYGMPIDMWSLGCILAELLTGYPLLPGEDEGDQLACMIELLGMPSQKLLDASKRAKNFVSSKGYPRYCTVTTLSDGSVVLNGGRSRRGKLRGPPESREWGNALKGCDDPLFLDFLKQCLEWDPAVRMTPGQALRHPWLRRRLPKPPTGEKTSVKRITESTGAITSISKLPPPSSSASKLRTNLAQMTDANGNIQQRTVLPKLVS
Briefly: Kinase panel: DYRK2. The format is biochemical, human/mammalian. The settings on record: compound at 10 μM, read-out: % of activity respect of the control. Here is the method:
as §1

The target of the next test is MELK (Homo sapiens, UniProt Q14680). Briefly: Kinase panel: MELK. Type of test: biochemical, human/mammalian. Conditions: compound at 10 μM, read-out: % of activity respect of the control. Here is the method: as §1
Another test concerns the target IGF-1R (Homo sapiens, UniProt P08069). In words: Kinase panel: IGF-1R. The format is biochemical, human/mammalian. Conditions: compound at 10 μM, read-out: % of activity respect of the control. Here is the method: as §1

Sequence of IGF-1R (P08069 31-1367): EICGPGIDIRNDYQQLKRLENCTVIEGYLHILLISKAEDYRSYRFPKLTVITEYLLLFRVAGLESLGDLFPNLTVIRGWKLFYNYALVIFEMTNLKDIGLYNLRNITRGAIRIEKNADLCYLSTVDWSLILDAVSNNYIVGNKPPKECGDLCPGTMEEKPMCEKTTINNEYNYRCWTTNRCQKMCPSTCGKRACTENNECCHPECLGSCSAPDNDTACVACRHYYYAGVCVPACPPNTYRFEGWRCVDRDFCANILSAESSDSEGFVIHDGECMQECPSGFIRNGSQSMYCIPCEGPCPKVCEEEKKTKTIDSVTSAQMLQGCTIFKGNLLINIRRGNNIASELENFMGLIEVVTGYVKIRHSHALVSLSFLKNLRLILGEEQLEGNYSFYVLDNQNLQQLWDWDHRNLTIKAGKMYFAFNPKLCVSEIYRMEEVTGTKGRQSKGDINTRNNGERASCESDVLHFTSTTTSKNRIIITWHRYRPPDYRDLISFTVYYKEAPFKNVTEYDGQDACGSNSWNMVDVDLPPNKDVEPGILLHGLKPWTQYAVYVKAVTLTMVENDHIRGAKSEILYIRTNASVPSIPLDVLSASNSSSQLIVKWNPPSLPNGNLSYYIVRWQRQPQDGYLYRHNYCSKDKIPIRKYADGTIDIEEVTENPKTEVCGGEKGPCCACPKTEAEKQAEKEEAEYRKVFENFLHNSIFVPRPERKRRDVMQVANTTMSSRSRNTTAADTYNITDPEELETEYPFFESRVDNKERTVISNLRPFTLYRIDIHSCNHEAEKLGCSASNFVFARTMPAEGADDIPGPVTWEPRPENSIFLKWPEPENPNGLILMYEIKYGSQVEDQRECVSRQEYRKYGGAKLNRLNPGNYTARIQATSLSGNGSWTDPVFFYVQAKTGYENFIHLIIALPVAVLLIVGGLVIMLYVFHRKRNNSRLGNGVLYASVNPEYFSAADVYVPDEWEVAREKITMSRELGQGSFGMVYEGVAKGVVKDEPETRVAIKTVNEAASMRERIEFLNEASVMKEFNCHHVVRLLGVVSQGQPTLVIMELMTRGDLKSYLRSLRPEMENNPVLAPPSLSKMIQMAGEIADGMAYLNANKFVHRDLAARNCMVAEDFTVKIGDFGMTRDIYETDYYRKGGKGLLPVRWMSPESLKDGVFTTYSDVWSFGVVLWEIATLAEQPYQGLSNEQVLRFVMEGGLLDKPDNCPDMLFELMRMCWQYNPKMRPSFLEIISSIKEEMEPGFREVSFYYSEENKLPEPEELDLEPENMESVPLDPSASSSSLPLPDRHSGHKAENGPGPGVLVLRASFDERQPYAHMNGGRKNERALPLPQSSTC
Sequence of CK1 (P48730 whole entry): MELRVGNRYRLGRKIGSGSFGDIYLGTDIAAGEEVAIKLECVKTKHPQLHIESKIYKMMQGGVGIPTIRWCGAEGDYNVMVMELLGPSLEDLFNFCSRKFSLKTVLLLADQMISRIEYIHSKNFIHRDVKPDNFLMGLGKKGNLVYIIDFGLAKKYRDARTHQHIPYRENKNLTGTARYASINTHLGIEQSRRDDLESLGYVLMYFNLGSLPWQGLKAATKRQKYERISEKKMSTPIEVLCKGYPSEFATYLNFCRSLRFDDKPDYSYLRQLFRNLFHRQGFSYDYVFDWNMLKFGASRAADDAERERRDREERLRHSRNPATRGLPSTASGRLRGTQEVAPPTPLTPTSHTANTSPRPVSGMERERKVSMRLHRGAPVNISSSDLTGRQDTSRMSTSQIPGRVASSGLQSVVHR
Sequence of PKBa (P31749 whole entry): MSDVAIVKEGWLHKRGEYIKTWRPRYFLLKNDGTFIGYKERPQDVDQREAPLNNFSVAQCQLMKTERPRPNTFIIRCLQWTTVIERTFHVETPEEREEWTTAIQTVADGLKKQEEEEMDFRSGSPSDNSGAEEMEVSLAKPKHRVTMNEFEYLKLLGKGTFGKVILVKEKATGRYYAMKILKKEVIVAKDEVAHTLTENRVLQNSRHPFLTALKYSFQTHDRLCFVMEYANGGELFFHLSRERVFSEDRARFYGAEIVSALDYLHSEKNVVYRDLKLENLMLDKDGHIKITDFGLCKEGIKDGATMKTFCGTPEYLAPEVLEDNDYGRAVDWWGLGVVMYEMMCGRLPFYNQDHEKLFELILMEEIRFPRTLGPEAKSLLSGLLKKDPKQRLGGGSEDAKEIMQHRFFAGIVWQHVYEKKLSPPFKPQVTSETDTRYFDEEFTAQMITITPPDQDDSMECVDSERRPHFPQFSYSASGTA
Sequence of Aurora B (Q96GD4 whole entry): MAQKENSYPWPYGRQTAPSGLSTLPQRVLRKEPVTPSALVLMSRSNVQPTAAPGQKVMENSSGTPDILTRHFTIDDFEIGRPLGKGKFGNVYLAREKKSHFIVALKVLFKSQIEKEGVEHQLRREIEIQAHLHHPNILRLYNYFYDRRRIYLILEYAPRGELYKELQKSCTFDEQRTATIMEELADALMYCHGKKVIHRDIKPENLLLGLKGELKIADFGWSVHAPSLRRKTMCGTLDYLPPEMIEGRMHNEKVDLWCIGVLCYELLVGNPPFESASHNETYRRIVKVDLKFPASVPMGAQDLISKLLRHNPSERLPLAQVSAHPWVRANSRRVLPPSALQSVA
Sequence of PKBb (P31751 whole entry): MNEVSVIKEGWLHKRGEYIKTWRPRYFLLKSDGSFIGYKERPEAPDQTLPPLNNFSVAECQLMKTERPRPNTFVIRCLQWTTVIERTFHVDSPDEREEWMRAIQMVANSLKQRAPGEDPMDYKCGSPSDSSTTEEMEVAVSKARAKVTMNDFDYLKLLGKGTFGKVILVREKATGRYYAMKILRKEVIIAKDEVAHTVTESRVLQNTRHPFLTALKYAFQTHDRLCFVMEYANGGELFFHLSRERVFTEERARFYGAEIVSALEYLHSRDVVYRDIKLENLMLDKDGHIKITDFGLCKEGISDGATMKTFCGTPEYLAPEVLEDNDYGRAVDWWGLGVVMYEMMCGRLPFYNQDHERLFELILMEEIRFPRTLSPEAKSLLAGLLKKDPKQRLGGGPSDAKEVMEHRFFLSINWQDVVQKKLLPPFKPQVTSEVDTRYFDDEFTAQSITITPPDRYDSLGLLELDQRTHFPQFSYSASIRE
Sequence of MELK (Q14680 whole entry): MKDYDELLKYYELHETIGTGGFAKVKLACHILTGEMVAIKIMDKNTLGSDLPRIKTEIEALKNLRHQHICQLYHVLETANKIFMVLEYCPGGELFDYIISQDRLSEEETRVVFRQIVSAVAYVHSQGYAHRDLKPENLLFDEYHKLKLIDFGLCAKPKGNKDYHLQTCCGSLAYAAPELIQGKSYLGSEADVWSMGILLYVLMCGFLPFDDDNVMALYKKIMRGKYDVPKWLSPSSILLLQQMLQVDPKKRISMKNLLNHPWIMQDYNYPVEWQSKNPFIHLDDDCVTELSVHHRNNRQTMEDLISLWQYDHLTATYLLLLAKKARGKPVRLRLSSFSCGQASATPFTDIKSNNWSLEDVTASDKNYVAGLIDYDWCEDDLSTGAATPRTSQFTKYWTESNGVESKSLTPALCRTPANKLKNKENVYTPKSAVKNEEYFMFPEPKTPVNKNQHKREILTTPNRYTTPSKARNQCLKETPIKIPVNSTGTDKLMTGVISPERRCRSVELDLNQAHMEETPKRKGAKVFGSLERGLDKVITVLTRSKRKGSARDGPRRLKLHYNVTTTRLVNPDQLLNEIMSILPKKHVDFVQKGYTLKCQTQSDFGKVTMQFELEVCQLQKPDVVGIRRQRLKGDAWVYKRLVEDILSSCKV

Turning to `CC(c1ccccc1)n1c(=O)[nH]c2ncc(-c3ccc(F)cc3)nc21` (centres unmarked) [Compound 1], the remaining activity at 10 µM at CK1 amounted to 75%; on PKBa, 99%; at EF2K it was 93%; at PKBb, 117%; on Aurora B it was 117%; on CDK2-Cyclin A, 89%. Further, the remaining activity at 10 µM at DYRK1A is 79%; at NEK2a it was 117%; at DYRK2, 100%; at MELK, 118%; on IGF-1R, 122%. In addition, in test [1], the EC50 is above 50 µM. In addition, in the test on AMPK, the “% of activity respect of the control” value is 97%.
Turning to `O=c1[nH]c2ncc(-c3ccc(F)cc3)nc2n1CC1CC1` [Compound 10], the remaining activity at 10 µM at CK1 worked out at 75%; on PKBa, 96%; on EF2K it was 92%; at PKBb, 120%; on Aurora B, 93%; at CDK2-Cyclin A it was 82%. The remaining activity at 10 µM at DYRK1A was 113%; at NEK2a it was 101%; on DYRK2, 94%; on MELK it was 125%; on IGF-1R, 85%. In [1], the EC50 is above 50 µM. In the test with AMPK, the “% of activity respect of the control” value came out at 94%.
With `O=c1[nH]c2ncc(-c3ccc(F)cc3)nc2n1C1CCCCC1` [Compound 12, 1-Cyclohexyl-6-(4-fluorophenyl)-1H-imidazo[4,5-b]pyrazin-2(3H)-one], the remaining activity at 10 µM on CK1 was found to be 98%; at PKBa it was 102%; at EF2K, 98%; on PKBb, 106%; on Aurora B, 85%; at CDK2-Cyclin A it was 84%. The remaining activity at 10 µM stood at 93% at DYRK1A; 93% on NEK2a; 99% on DYRK2; 110% on MELK; 100% on IGF-1R. Further, the EC50 in [1] was above 50 µM. Moreover, the “% of activity respect of the control” value in the test with AMPK is on record as 100%.
Consider `C[C@H](c1ccccc1)n1c(=O)[nH]c2ncc(-c3ccccc3)nc21` [Compound 14, (R)-6-Phenyl-1-(1-phenylethyl)-1H-imidazo[4,5-b]pyrazin-2(3H)-one], for which the remaining activity at 10 µM came out at 71% at CK1; 89% on PKBa; 79% on EF2K; 100% on PKBb; 99% at Aurora B; 84% on CDK2-Cyclin A. For the same compound, the remaining activity at 10 µM at DYRK1A came out at 85%; on NEK2a, 96%; at DYRK2, 89%; at MELK, 100%; at IGF-1R, 112%. The compound also showed an EC50 in test [1] of 26 µM. The “% of activity respect of the control” value in the test with AMPK stood at 95%.
Consider `O=c1[nH]c2ncc(-c3ccccc3CO)nc2n1C1CCCCC1` [Compound 28], for which, in test [1], the EC50 was above 50 µM.

As usually defined, the EC50 is the concentration needed to bring the measured effect to its halfway point. Lower therefore signals greater potency.

The record behind these values is paper PMC4648050, “Discovery of Inhibitors of Trypanosoma brucei by Phenotypic Screening of a Focused Protein Kinase Library” (Chemmedchem, 2015).
